# Measurements published in patent publication US11147790B2, “Treatment of cutaneous disorders” (Verrica Pharmaceuticals Inc., priority 2017, dated 2021).
# “And” between values parts separate entries of the source, which are not always exact repeats. Identical values can stand only once.
# Assay: Phase II clinical trial, systemic exposure evaluation (plasma concentration of cantharidin) after topical application to Molluscum contagiosum lesions
# Assay type: in vivo, human
# Procedure: This example describes pharmacokinetic results from a Phase II clinical trial for the treatment of skin lesion resulting from Molluscum contagiosum. Patients received administrations of the cantharidin composition in Table 9 to Molluscum contagiosum lesions every 21 days for a maximum of 4 sessions or until complete clearance. Blood samples for systemic exposure evaluation were collected on Day 1, prior to the drug application, and 2 (+30 minutes), 6 (+1 hour) and 24 (±3 hours) hours post-application. The average age of the subjects was 7±3.5 years. The average body weight of the subjects was 58±34.6 lb. The average number of lesions per subject was 43.7±24.2.
# The plasma concentration of cantharidin for all subjects was less than 3.3 ng/ml at all times sampled.
compound,measurement,setting,value
C[C@@]12C(=O)OC(=O)[C@]1(C)[C@H]1CC[C@@H]2O1 [cantharidin],plasma concentration of cantharidin for all subjects at all times sampled,"all seventeen subjects, 2, 6 and 24 hours post-application, composition of Table 9, topical",less than 3.3 ng/ml
same,Exposure,"plasma cantharidin per individual subject, cantharidin composition of Table 9 applied topically to Molluscum contagiosum lesions, blood collected Day 1 at 2, 6 and 24 hours post-application, lower limit of quantification 2.5 ng/ml",<2.5 ng/ml (16×) and 3.3 ng/ml
same,plasma concentration of cantharidin below the lower limit of quantification,"subjects as young as 2 years old, having over 100 lesions, having genital lesions, with as many as 2.26 lesions per lb, LLOQ 2.5 ng/ml, only one of seventeen subjects above LLOQ",< 2.5 ng/mL
